This is an account of results in patent publication US8802662B2, “Anti-hepatitis C composition and method for preparing drug for inhibiting hepatitis C viruses or treating hepatitis C” (Industrial Technology Research Institute, priority 2009, dated 2014).

≈ marks a conversion by molar mass, not a printed value.

Series [1] deals with Huh-luc/neo-ET cells. In words: in vitro. Conditions: MTT, culturing for two days; for CC15: 15% of the cell cytotoxic concentration: from trend line formula (y = 85). It is filed as cell-based. Here is the method: (§1) Huh-luc/neo-ET cells with concentration of 2.5×10^4 cells/100 μl/well were seeded into a 96 well culture plate (Corning Incorporation COSTAR, 3599) and placed into a cell incubator for culturing.
(§2) The next day, a toosendanin sample was diluted with a DMEM culture medium to the concentrations of 28.73 μg/ml, 9.57 μg/ml, 3.19 μg/ml, 1.06 μg/ml, 0.35 μg/ml, 0.11 μg/ml, 0.039 μg/ml and 0.013 μg/ml, respectively, or to become the concentrations of 114.92 μg/ml, 38.33 μg/ml, 12.77 μg/ml, 4.25 μg/ml, 1.42 μg/ml, 0.46 μg/ml, 0.16 μg/ml and 0.057 μg/ml, respectively. The initial medium in the 96 well culture plate was sucked out by a vacuum pump (DOAT-704AA) without removing the cells. Then, the toosendanin culture medium with concentrations mentioned above were added into the 96 well culture plate containing cells with amount of 100 μl/well as experiment groups while untreated culture medium were added to the cells as a control group.
(§3) Then, PBS was removed and 50 μl of medium containing MTT (Sigma, M2128) with a concentration of 0.5 mg/ml was added into each well of the 96 well culture plate. After the 96 well culture plate was placed in a CO2 culture incubator for 1 hour, DMSO (Riedel-de Haën, 60153) with amount of 150 μl/well was added into the 96 well culture plate and vortexed by a votexer (KS shaker Type 670) to thoroughly mix the resulting purple precipitate. After the purple precipitate was thoroughly mixed, the 96 well culture plate was placed in a continuous wave length microwell plate analysis system (Molecular Devices, SPECTRAMAX 190) to measure the absorbance of cells at 560 nm.
(§4) The average absorbance of the control groups was used as 100% of the cell survival rates (%) to calculate the cell survival rates (%) of the experiment groups with different concentrations of toosendanin samples. The formula of the cell survival rate was: (absorbance of experiment group/absorbance of the control group)×100%. The cell survival rates of all experiment groups were drawn to form an x-y graph and thus a trend line formula with R^2 value greater than 0.9 was obtained.
(§5) In the trend line formula, when y was 50, the resulting X meant 50% of the cell cytotoxic concentration (CC50) or when y was 85, the resulting X meant 15% of the cell cytotoxic concentration (CC15). Due to the property of the sample, CC15 was calculated from the trend line formula generated by the experiment groups containing samples with concentrations of 3.19 μg/ml, 1.06 μg/ml, 0.35 μg/ml, 0.11 μg/ml and 0.039 μg/ml.
(§6) When the cell survival rates (%) was greater than 85%, it meant that the sample at or less than the concentration (the concentration less than CC15) was non-cytotoxic. […]

Series [2] concerns HCV replicon (I389luc-ubi-NS3-3′/ET) in Huh-luc/neo-ET cell. In words: HCV replication inhibition by firefly luciferase activity in Huh-luc/neo-ET cells (HCV replicon system). The conditions noted are these: for IC50 / IC90: Hepatitis C virus, Huh-luc/neo-ET, 48 h; for IC50: read-out: IC50: 50% of the HCV replication inhibition concentration, Huh-luc/neo-ET cells, luciferase activity, co-cultured 2 days; for IC90: read-out: IC90: 90% of the HCV replication inhibition concentration; for IC50: 50% of the HCV replication inhibition concentration: Huh-luc/neo-ET cells, luciferase activity, co-cultured 2 days; for EW (effect window, CC50/IC50): ratio of CC50 to IC50 in Huh-luc/neo-ET cells. From the text: The Huh-luc/neo-ET cell has I389luc-ubi-NS3-3′/ET replicon and could be used to monitor the replicative capability of the HCV. The Huh-luc/neo-ET is able to express a firefly luciferase-ubiquitin-neomycin fusion protein translated by the internal ribosomal entry site (IRES) of the hepatitis C virus and is able to express the hepatitis C viral nonstructural protein (NS3-5B) including protease, helicase and polymerase translated by the IRES of the encephalomyocarditis virus (EMCV). When the replication complex composed of the IRES of the hepatitis C virus or the nonstructural protein of the hepatitis C virus is influenced by a candidate, the effect of the candidate for inhibiting the activity of the hepatitis C virus repilcon can be estimated by determining the intensity of the firefly luciferase activity. The hepatitis C virus inhibition effect of the limonoid compound can be determined by determining the firefly luciferase activity expressed by the Huh-luc/noe-ET cell in presence of the limonoid compound.
5.96 g of chuanlianzi ethanol extract was dissolved in 20 ml of a mixture of methanol and water and extracted with 15 ml of n-hexane, diethyl ether, dichloromethane and ethyl acetate for 2-3 times, respectively to obtain an n-hexane layer extraction solution, diethyl ether layer extraction solution, dichloromethane layer extraction solution and ethyl acetate layer extraction solution, respectively. Each layer extraction solution was concentrated and dried to obtain an n-hexane layer extract, diethyl ether layer extract, dichloromethane layer extract and ethyl acetate layer extract, respectively. The hepatitis C inhibition activity of each layer extract was determined by using a Huh-luc/neo-ET cell (HCV replication system) for testing thereof.
The Huh-luc/neo-ET cells were co-cultured with toosendanin with concentrations of 0.15 μg/ml, 0.075 μg/ml, 0.038 μg/ml, 0.019 μg/ml and 0.0085 μg/ml, respectively for 2 days and then were washed twice by 100 μl of 1×PBS (1 mM KH2PO4, 10 mM Na2HPO4, 137 mM NaCl, 2.7 mM KCl) and PBS was removed. 35 μl of 1× passive lysis buffer (Promega, E1941) was added to the cells and vortexed by a vortexer for 10 minutes to thoroughly mix the cells.
Cell suspension with an amount of 30 μl/well was added to a 96 well white plate(NUNC, 236108) for measuring luciferase activity, and 40 μl/well of luminescence analysis buffer and 20 μl/well of luminescence substrate (1 mM D-Luciferin) were sequentially added into the 96 well white plates. After the substrate was added, a microplate luminescence meter (Berthold, MPL4) was used to measure the luciferase activity (Rlu/s).
The luciferase activity of the control group was used as a standard to calculate the hepatitis C virus inhibition rates (%) of the experiment groups. The formula of inhibition rates (%) was: {[(luciferase activity of control group)−(luciferase activity of experiment group)]/(luciferase activity of control group)}×100%. After the sample was serial diluted and the HCV replication inhibition rates were determined at different concentrations, 50% of the HCV replication inhibition concentration (IC50) was calculated by grafit5 software (Erithacus Software).
For each experiment, except for the PEG IFN alpha-2a with concentrations of 0.5 ng/ml and 0.1 ng/ml were used as positive controls for the IC50 test. Additionally, cyclosporine A (CsA) with a concentration of 1 μg/ml was also used as a positive control for the IC50 test.
The experiment procedure was the same as Example 2 while the testing sample was replaced with Trichilin H. The Huh-luc/neo-ET cells were co-cultured with Trichilin H with concentrations of 0.75 μg/ml, 0.5 μg/ml, 0.25 μg/ml and 0.125 μg/ml, respectively.
In general terms: In antiviral work, replicon cells carry a viral genome segment that copies itself.

Series [3] is described as follows: in vitro. It is filed as cell-based. Conditions: human, Huh-luc/neo-ET cells, MTT, culturing for two days; read-out: CC50: 50% of the cell cytotoxic concentration. Here is the method:
as §1, §2, §3, §4, §5, §6

On to `CC(=O)O[C@@H]1C[C@H](O)[C@@]23CO[C@@H](O)[C@]1(C)[C@@H]2C[C@@H](O)[C@]1(C)[C@@H]3C(=O)[C@H](OC(C)=O)[C@@]2(C)[C@H](c3ccoc3)C[C@H]3O[C@]321` [Toosendanin, toosendanin], for which, in series [1], the “CC50: 50% of the cell cytotoxic concentration” value is more than 114 µg/mL and the “CC15: 15% of the cell cytotoxic concentration” value is 0.34 µg/mL. Moreover, in series [2], the IC50 was less than 0.05 µg/mL; the IC90 amounted to 0.35 µg/mL (≈ 0.609 µM); the “IC50: 50% of the HCV replication inhibition concentration” value was determined as 0.045 ± 0.004 µg/mL; the “EW (effect window, CC50/IC50)” value is more than 2531.6. Also, in series [2] (listed as toosendanin), the “EW (effect window, CC50/IC50)” value is reported as “greater than 2500”.

Take `CC(=O)OC1C(OC(C)=O)C2(C)C(OC(=O)C(C)C)OCC3(C1O)C2CC(O)C1(C)C3C(=O)C(OC(C)=O)C2(C)C(c3ccoc3)CC3OC321` (stereo not drawn) [Trichilin H]: the CC50 in series [3] is more than 50 µg/mL. Further, the “CC15: 15% of the cell cytotoxic concentration” value in series [1] is 0.7 µg/mL. In addition, in series [2], the IC50 was less than 0.5 µg/mL, the IC90 worked out at 0.9 µg/mL (≈ 1.28 µM) and the “IC50: 50% of the HCV replication inhibition concentration” value worked out at 0.48 ± 0.10 µg/mL.
